Values joined by “and” are separate entries in the source; they are usually repeats but may differ in a detail not shown here. Equal entries are not always repeated. “Also recorded” adds a separate entry of the source.

What all share (type): in vivo, athymic nude mice
The test system of test [1] is Human Glioblastoma Cancer (U-87MG) xenograft. Kind of test: Histopathology of tumor samples with scoring. Details: key to Score: Grade: 1: I; 2: II; 3: III; 4: IV; key to Score: Connective tissue stroma: 1: Minimal Fibrosis; 2: Mild Fibrosis; 3: Moderate Fibrosis; 4: Prominent; key to Score: N:C ratio: 3: High; 2: Low to High; 1: Low; key to Score: Apoptosis / Score: Lipid content: 4: Minimal; 3: Mild; 2: Moderate; 1: Prominent. To be noted: individual animals; G3 APT20TTMG, G2 TMZ. The text has this: (§1) The fixed tissues were processed for routine paraffin embedding followed by sectioning (3-6 micron). The sections were stained with hematoxylin and eosin. The prepared slides were examined under microscope by the study pathologist to record histopathological findings in tumor samples, related to capsule formation, cell type, connective tissue stroma, apoptosis, necrosis, lipid content, nucleus-to-cytoplasmic (N:C) ratio, nuclei mitotic figures, tumor grade, and level of differentiation. Each histopathological finding and tumor volume were assigned a score ranging from 1 to 4 (Table 7). The sum of these scores for each sample was used to infer the tumor aggressiveness.

For test [2] the test system is unchanged. Kind of test: Histopathology of tumor samples with scoring. Details: key: 4: Minimal; 3: Mild; 2: Moderate; 1: Prominent. To be noted: individual animals; G3 APT20TTMG, G2 TMZ.
Description: as §1

Test [3] shares this test system. Kind of test: Histopathology of tumor samples with scoring. Details: key: 1: Minimal Fibrosis; 2: Mild Fibrosis; 3: Moderate Fibrosis; 4: Prominent. To be noted: individual animals; G3 APT20TTMG, G2 TMZ.
Description: as §1

For test [4] the test system is unchanged. Kind of test: Human glioblastoma xenograft tumor growth. To be noted: for tumor reduction in relation to the negative control: APT20TTMG 20 mg/kg i.v. q3d, TMZ 5 mg/kg p.o. daily. The procedure: Subcutaneous inoculation of the tumorigenic Human Glioblastoma Cancer Cell line (U-87MG) results in the formation of solid tumor in athymic nude mice. Under pathogen free conditions, the tumor retains its own characteristics and grows using the growth factors supplied by the host animal. The ability of administered ASMO1 to inhibit the growth of tumor can be a valuable tool to evaluate its efficacy as an anti-tumor agent. Measurement of tumor size at defined intervals of time generates data that can be used to calculate various end point parameters derived from tumor and understand the potency of the test compounds.
Human glioblastoma cancer cells (U-87MG) were cultured and expanded in EMEM (Eagle's Minimum Essential Medium) supplemented with 10% Fetal Bovine Serum (FBS) at 37° C. and 5% CO2. The cells growing at log phase were harvested by trypsinization and centrifuged for 3 minutes at 800 rpm to form a pellet. The pellet was further washed with PBS. Cell suspension stock was prepared to obtain the required cell count. Before cell inoculation, cell viability was determined using trypan blue. 25 μL of cell suspension was stained with 25 μL of trypan blue and viable cells were counted using Neubauer's chamber. Cell number was adjusted by adding serum free media to achieve desired concentration, i.e., 10×10^7/mL.
Cells were diluted such that the concentration of the cells was 10 million cells/100 μL of serum free medium. Overnight thawed Matrigel and cells with medium were mixed 1:1 and a total volume of 200 μL was injected subcutaneously to the donor animals (n=5) at flank region.
Donor animals were monitored for solid tumor growth for at least 3-4 weeks. Tumor size was measured using digital caliper (MITUTOYO, Japan, CP-15Mx) and volume was calculated by using the formula: (L*W2)/2. Once the tumor reached required size ˜500 mm^3, the donor animals were humanely sacrificed, the tumor was harvested and fragmented into ˜30 mg size and implanted subcutaneously to experimental animals (n=50) using the device. All the animals was monitored alternate day for tumor growth/size.
Once the tumor size reached ˜100 mm^3, animals were selected and randomized by stratification method using tumor size into three groups (G1-G3). Treatment for G1-G3 was initiated at this stage. Each group was comprised of 8 animals.
• G1 was served as vehicle control group and treated with normal saline at the dose of 5 mL/kg, daily, intravenously for 3 weeks. • G2 was served as Reference Item treated group and treated with TMZ at the dose of 5 mg/kg, p.o., daily for 3 weeks. • G3 was treated with APT20TTMG at the dose of 20 mg/kg, intravenously, every third day (q3d) for 3 weeks.
Body weight and tumor size were measured weekly twice using digital caliper. At termination, blood was collected through retro-orbital route. Serum/plasma was separated and stored at deep freezer (−20° C.). Post blood collection, animals were humanely sacrificed by CO2 asphyxiation as per latest guidelines issued by CPCSEA. All the vital organ (brain, kidney, liver, lungs, heart) and tumor were dissected out. Vital organs were fixed in 10% NBF and stored. Tumor tissue was dissected out, weighed and portion of tumor tissue was fixed in 10% NBF and another portion is snap frozen and stored at deep freezer (−80° C.).
As shown in FIG. 34A-C, tumor fragments from the U-87MG cell line were implanted in the animals and once the tumor size reached ˜100 mm^3 animals were randomized into 3 experimental groups (G1, G2, and G3). G1: Vehicle, (G2) Reference Item Temozolomide, and (G3) APT20TTMG for a total of 22 days. (A) The tumor volume of the animals was measured twice/a week. (B) Animals were weighed throughout the experiment and the change in weight gain compared to pre-treatment weight was plotted. (C) After the euthanasia of the animals, the tumors were removed and weighed.

Test [5] shares this test system. Kind of test: Histopathology of tumor samples with scoring. Details: key: 1: Few; 2: Moderate; 3: Large. To be noted: individual animals; G3 APT20TTMG, G2 TMZ.
Description: as §1

Take `Cn1nnc2c(C(N)=O)ncn2c1=O` [TMZ, Temozolomide, reference compound]: in test [1], the “Histopathological findings: Grade” value was “Grade- 2; also recorded: Grade- 3”; the “Score: Apoptosis” value is 3 (7×) and 2; the “Score: Connective tissue stroma” value was 3 (2×) and 2 (5×) and 1; the “Score: Grade” value is 2 (5×) and 3 (3×). In addition, in test [1], the “Score: Lipid content” value is 3 (4×) and 2 and 1 (3×); the “Score: N:C ratio” value stood at 2; the “Score: Volume Tumor” value is 4 (>1500) and 1 (<500) (2×) and 2 (500-1000) (2×) and 3 (1000-1500) (3×). For the same compound, in test [2], the “Score: Necrosis” value turned out to be 3. Also, in test [3], the “Score: Necrosis” value amounted to 4. Moreover, the “tumor reduction in relation to the negative control” value in test [4] (day 20) turned out to be 41.3±11.1%. Besides, in test [4] (day 22), the “tumor reduction in relation to the negative control” value is reported as 31.1±13.4%. Further, the “Volume (tumor)” value in test [4] (individual animals, G3 APT20TTMG, G2 TMZ) is reported as “Volume 1593.8; also recorded: Volume 113.1; also recorded: Volume 937.9; also recorded: Volume 339.1; also recorded: Volume 1447.2; also recorded: Volume 830.6; also recorded: Volume 1277.9; also recorded: Volume 1479.7”. The “Score: Mitotic figures” value in test [5] is 3 (4×) and 1 (4×).

Source of the values: patent publication US20260085315A1, “POLYNUCLEOTIDE COMPOSITIONS AND METHODS FOR TREATMENT OF CANCER” (APTAH BIO, INC., priority 2023, published 2026).
